According to patent publication US5545647A, “3-phenylpyrrolidine derivatives” (Mitsubishi Chemical Corporation, priority 1994, dated 1996):

Key:
[1] = test system: Phosphodiesterase (PDE) IV; assay: Action to Phosphodiesterase (PDE) IV Enzyme Activities (3H-cAMP hydrolysis, enzyme from U-937 cells); assay type: biochemical; details: human histiocytic lymphoma (U-937) cytoplasm fraction enzyme; 0.4 μM 3H-cAMP; pH 8.0; 15 minutes at 30° C.; read-out: PDE IV inhibitory activity IC50
Protocol: Action to Phosphodiesterase (PDE) IV Enzyme Activities
Enzyme was partialy purified from human histiocytic lymphoma(U-937) cytoplasm fraction by means of the Q-sepharose column according to the method of Nicholson and collaborators [Br. J. Pharmacol., 97, 889 (1989)], and was reacted in a solution of 0.1 mg/ml BSA (bovine serum albumin), 1 mM EDTA (ethylenediaminetetra acetic acid), 5 mM MgCl2 and 50 mM Tris-buffer (pH 8.0) for 15 minutes at 30° C. using 0.4 μM ^3 H-cAMP as substrate according to the method of Hidaka and collaborators [Biochem. Med., 10, 301 (1974)]. ^3 H-5'-AMP generated was separated by means of the cation exchange column, and the enzyme activity was determined by measuring a radioactivity amount.
A test compound was added. After incubation for 15 minutes at 30° C., the substrate was added. Inhibition ratios were derived for respective concentrations assuming that the reaction without the test compound was 100%. By using the probit analysis, the concentration (IC50) showing the inhibition rate of 50% was derived.

PDE IV = details: Adv. Second Messenger Phosphoprotein Res., 22, 1 (1988); cited from earlier work

| SMILES | IC50 [1] [nM] | specific inhibition to PDE IV (PDE IV) |
| --- | --- | --- |
| COc1ccc(C2CCN(C(=O)OCc3cccnc3)C2)cc1OC1CCCC1 (racemic) [Compound No. 13, (±)-3-(3-cyclopentyloxy-4-methoxyphenyl)-l-(3pyridylmethoxycarbonyl) pyrrolidine] | 3.3 | – |
| COc1ccc(C2CCN(C(=O)OCc3cccnc3)C2)cc1OC1CCCC1 (single isomer, unassigned; (-)) [Compound No. 48, (-)-3-(3-cyclopentyloxy-4-methoxyphenyl)-1-(3-pyridylmethoxycarbonyl) pyrrolidine] | 1.1 | – |
| COc1ccc(C2CCN(C(=O)OC(C)(C)C)C2)cc1OC1CCCC1 (centres unmarked) [Compound No. 1] | 10 | – |
| CCOC(=O)N1CCC(c2ccc(OC)c(OC3CCCC3)c2)C1 (centres unmarked) [Compound No. 4, 3-(3-cyclopentyloxy-4-methoxyphenyl)-1-(ethoxycarbonyl) pyrrolidine] | 11 | – |
| COc1ccc(C2CCN(C(=O)OCc3ccccc3)C2)cc1OC1CCCC1 (centres unmarked) [compound 3] | 6 | – |
| CCCCOC(=O)N1CCC(c2ccc(OC)c(OC3CCCC3)c2)C1 (centres unmarked) [compound 6] | 6 | – |
| COc1ccc(C2CCN(C(=O)c3ccccc3)C2)cc1OC1CCCC1 (centres unmarked) [compound 7] | 20 | – |
| COc1ccc(C2CCN(C(=O)OC(C)(C)C)C2)cc1OC1CCOC1 (centres unmarked) [compound 8] | 19 | – |
| COc1ccc(C2CCN(C(=O)OCc3ccc[n+]([O-])c3)C2)cc1OC1CCCC1 (centres unmarked) [compound 17] | 23 | – |
| COc1ccc(C2CCN(C(=O)OCc3ccncc3)C2)cc1OC1CCCC1 (centres unmarked) [compound 19] | 3.8 | – |
| COc1ccc(C2CCN(C(=O)OCc3ccccn3)C2)cc1OC1CCCC1 (centres unmarked) [compound 24] | 2.3 | – |
| COc1ccc(C2CCN(C(=O)OCc3cccc[n+]3[O-])C2)cc1OC1CCCC1 (centres unmarked) [compound 26] | 8.8 | – |
| COc1cc2c(cc1OC)CN(C(=O)N1CCC(c3ccc(OC)c(OC4CCCC4)c3)C1)CC2 (centres unmarked) [compound 32] | 25 | – |
| COc1ccc(C2CCN(C(=O)OCCc3ccccn3)C2)cc1OC1CCCC1 (centres unmarked) [compound 36] | 11 | – |
| COc1ccc(C2CCN(C(=O)OCc3ccnc(Cl)c3)C2)cc1OC1CCCC1 (centres unmarked) [compound 37] | 19 | – |
| COc1ccc(C2CCN(C(=O)OCc3ccc(Cl)nc3)C2)cc1OC1CCCC1 (centres unmarked) [compound 38] | 23 | – |
| COc1ccc(C2CCN(C(=S)OCc3cccnc3)C2)cc1OC1CCCC1 (centres unmarked) [compound 40] | 10 | – |
| COc1ccc(C2CCN(C(=O)OCc3cccnn3)C2)cc1OC1CCCC1 (centres unmarked) [compound 42] | 8 | – |
| COc1ccc(C2CNC(=O)C2)cc1OC1CCCC1 (centres unmarked) [roliplam, reference compound] | 300 | specific inhibition to PDE IV |
